Reference: patent US4835160A, “Derivatives of pyridoindole, having anti-tumor properties” (Sanofi, priority 1986, dated 1989)

Columns and labels:
[1] = tested on: leukemia tumour line L 1210; assay: In vitro cytotoxic activity on leukemia tumour line L 1210; type: cell-based; conditions: Mus musculus, L1210, 48 h, L 1210, 48 hours contact, 37° C.; read-out: I D 50 (concentration which inhibits the proliferation of the cells by 50%)
Procedure, shortened: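 Exponentially growing L 1210 leukemia cells were exposed to increasing compound concentrations at 37 °C under CO2 and counted every 24 h. ID50, the concentration inhibiting proliferation by 50%, was calculated after 48 h contact.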

leukemia L 1210 [2] = assay: Test for leukemia L 1210, IP/IP, D1-D5; type: in vivo, CDF1 hybrid mice; conditions: for Number of survivors: day D60; for T/C %: survival time
Description: (§1) The antitumour activity was tested in vivo on various tumours inoculated in various ways according to the following general protocol:
(§2) All the male or female mice are inoculated on day D0 with a known quantity of viable tumour cells for ascitic tumours or with a known tumour fragment for solid tumours.
(§3) They are then distributed into various groups. Each group, corresponding to the animals treated by the product under test, is made up of 10 mice. The product under test is dissolved in distilled water and it is administered n times (Dx-Dy), n, y, and x varying according to the protocol chosen, at the rate of 0.1 ml of solution per 10 g by weight of mice treated and at specific doses for each protocol.
(§4) The "negative control" group, corresponding to the animals which are not treated by the product, contains 2√N animals, N being equal to or greater than the total number of mice treated by the product in the same experiment.
(§5) Finally, the tests can also be carried out at the same time as the study of a group called "positive control", of ten animals, which is treated by a molecule, known for its antitumour activity and which can vary according to the protocol chosen, in the same conditions as the groups treated by the product under test.
(§6) The antitumour activity is evaluated, in the case of ascitic tumours, by considering the increase in the survival time of the animals treated in comparison to that of the animals in the "negative control" group, according to the formula: [formula]
(§7) Also, a product is considered as toxic at the dose studied when this T/C value is equal to or less than 85%. In addition, a product is also considered as toxic at the dose studied when the weight variation, expressed in grams and calculated by the formula: […]
(c) Test for leukemia L 1210, IP/IP, D-5 (GERAN et al., Cancer cheomother.,1972, 2, 07-57).
(§8) The tests are carried out with CDF1 hybrid mice inoculated by intraperitoneal route with 10^5 leukemia cells from the L 1210 line. The compound under test is administered for 5 days (D1-D5) by intraperitoneal route. The positive control for the test is 5-fluorouracile administered in the same conditions. The number of surviving animals is evaluated on day D60.

reticulosarcoma M5-M5076 = assay: Test for reticulosarcoma M5-M5076; type: in vivo, BDF1 hybrid mice; conditions: D1,5,9,13,17; for Number of survivors: day D75; for T/C %: survival time
Description: as §1, §2, §3, §4, §5, §6, §7
The tests are carried out with BDF1 hybrid mice inoculated by intraperitoneal route with 10^6 cells of the M5-M5076 line. The compound under test is administered 5 times successively in sequence (D1,5,9,13,17) by intraperitoneal route. The positive control for the test is cyclophosphamide administered in the same conditions. The number of surviving animals is evaluated on day D75.

leukemia L 1210 [3] = assay: Test for leukemia L 1210 IP/D1 IV; type: in vivo, CDF1 hybrid mice; conditions: 20 mg/kg IV
Description: as §1, §2, §3, §4, §5, §6, §7, §8
(g) Test for leukemia L 1210 IP/D1 IV. (GERAN et al., Cancer Chemother., 1972, 2, 07-57).
The test is carried out according to the same protocol as that described for test (c), the compound under test being administered by intravenous route only on day D1.

With CCN(CC)CCCNc1ncc(C)c2[nH]c3ccc(O)cc3c12 [Derivative No. 7, 1-(diethylaminopropylamino)-8-hydroxy-4-methyl-5H-pyrido[4,3-b]indole] the IC50 [1] was 0.06 µM, the “Median day of survival” value (leukemia L 1210 [2]; 0.625 mg/kg IP) was 11.75 days and the “Variation by weight” value (leukemia L 1210 [2]; 0.625 mg/kg IP) was -0.9 g. The Number of survivors (leukemia L 1210 [2]; 0.625 mg/kg IP) was 0/10, the T/C % (leukemia L 1210 [2]; 0.625 mg/kg IP) was 133% and the “Median day of survival” value (leukemia L 1210 [2]; 1.25 mg/kg IP) was 14.25 days. For the same compound, the “Variation by weight” value (leukemia L 1210 [2]; 1.25 mg/kg IP) was -1.2 g, the Number of survivors (leukemia L 1210 [2]; 1.25 mg/kg IP) was 0/10 and the T/C % (leukemia L 1210 [2]; 1.25 mg/kg IP) was 162%. The “Median day of survival” value (leukemia L 1210 [2]; 2.5 mg/kg IP) was 20.75 days, the “Variation by weight” value (leukemia L 1210 [2]; 2.5 mg/kg IP) was -1.1 g and the Number of survivors (leukemia L 1210 [2]; 2.5 mg/kg IP) was 4/10. The T/C % (leukemia L 1210 [2]; 2.5 mg/kg IP) was 236%, the “Median day of survival” value (leukemia L 1210 [2]; 5 mg/kg IP) was 14.0 days and the “Variation by weight” value (leukemia L 1210 [2]; 5 mg/kg IP) was -0.8 g. The Number of survivors (leukemia L 1210 [2]; 5 mg/kg IP) was 2/10, the T/C % (leukemia L 1210 [2]; 5 mg/kg IP) was 159% and the “Median day of survival” value (leukemia L 1210 [2]; 10 mg/kg IP) was 37.0 days. For the same compound, the “Variation by weight” value (leukemia L 1210 [2]; 10 mg/kg IP) was -2.2 g, the Number of survivors (leukemia L 1210 [2]; 10 mg/kg IP) was 5/10 and the T/C % (leukemia L 1210 [2]; 10 mg/kg IP) was 420%. For the same compound, the “Median day of survival” value (leukemia L 1210 [2]; 20 mg/kg IP) was 35.0 days, the “Variation by weight” value (leukemia L 1210 [2]; 20 mg/kg IP) was -4.2 g and the Number of survivors (leukemia L 1210 [2]; 20 mg/kg IP) was 5/10. The T/C % (leukemia L 1210 [2]; 20 mg/kg IP) was 398%, the “Median day of survival” value (leukemia L 1210 [2]; 30 mg/kg IP) was 8.25 days and the “Variation by weight” value (leukemia L 1210 [2]; 30 mg/kg IP) was -5.6 g. The Number of survivors (leukemia L 1210 [2]; 30 mg/kg IP) was 0/10, the T/C % (leukemia L 1210 [2]; 30 mg/kg IP) was 94% and the “Median day of survival” value (reticulosarcoma M5-M5076; 2.5 mg/kg IP) was 31.25 days. The “Variation by weight” value (reticulosarcoma M5-M5076; 2.5 mg/kg IP) was -1.0 g, the Number of survivors (reticulosarcoma M5-M5076; 2.5 mg/kg IP) was 0/10 and the T/C % (reticulosarcoma M5-M5076; 2.5 mg/kg IP) was 120%. The “Median day of survival” value (reticulosarcoma M5-M5076; 5 mg/kg IP) was 33.0 days, the “Variation by weight” value (reticulosarcoma M5-M5076; 5 mg/kg IP) was -1.4 g and the Number of survivors (reticulosarcoma M5-M5076; 5 mg/kg IP) was 1/10. For the same compound, the T/C % (reticulosarcoma M5-M5076; 5 mg/kg IP) was 127%, the “Median day of survival” value (reticulosarcoma M5-M5076; 10 mg/kg IP) was 37.25 days and the “Variation by weight” value (reticulosarcoma M5-M5076; 10 mg/kg IP) was -1.8 g. For the same compound, the Number of survivors (reticulosarcoma M5-M5076; 10 mg/kg IP) was 0/10, the T/C % (reticulosarcoma M5-M5076; 10 mg/kg IP) was 143% and the “Median day of survival” value (reticulosarcoma M5-M5076; 20 mg/kg IP) was 41.0 days. The “Variation by weight” value (reticulosarcoma M5-M5076; 20 mg/kg IP) was -1.9 g, the Number of survivors (reticulosarcoma M5-M5076; 20 mg/kg IP) was 0/10 and the T/C % (reticulosarcoma M5-M5076; 20 mg/kg IP) was 158%. For the same compound, the “Median day of survival” value (reticulosarcoma M5-M5076; 40 mg/kg IP) was 42.0 days, the “Variation by weight” value (reticulosarcoma M5-M5076; 40 mg/kg IP) was -1.8 g and the Number of survivors (reticulosarcoma M5-M5076; 40 mg/kg IP) was 1/10. The T/C % (reticulosarcoma M5-M5076; 40 mg/kg IP) was 161%.
In the case of Cc1cnc(NCCCN(C)C)c2c1[nH]c1ccc(O)cc12 [Derivative No. 10, 1-(3-dimethylaminopropylamino)-8-hydroxy-4-methyl-5H-pyrido[4,3-b]indole], the “Median day of survival” value (leukemia L 1210 [2]; 1.25 mg/kg IP) is reported as 12.75 days, the “Variation by weight” value (leukemia L 1210 [2]; 1.25 mg/kg IP) is reported as -1.7 g and the Number of survivors (leukemia L 1210 [2]; 1.25 mg/kg IP) is reported as 1/10. For the same compound, the T/C % (leukemia L 1210 [2]; 1.25 mg/kg IP) was 145%, the “Median day of survival” value (leukemia L 1210 [2]; 2.5 mg/kg IP) was 20.0 days and the “Variation by weight” value (leukemia L 1210 [2]; 2.5 mg/kg IP) was -2.1 g. The Number of survivors (leukemia L 1210 [2]; 2.5 mg/kg IP) was 4/10, the T/C % (leukemia L 1210 [2]; 2.5 mg/kg IP) was 227% and the “Median day of survival” value (leukemia L 1210 [2]; 5 mg/kg IP) was over 60 days. For the same compound, the “Variation by weight” value (leukemia L 1210 [2]; 5 mg/kg IP) was -2.7 g, the Number of survivors (leukemia L 1210 [2]; 5 mg/kg IP) was 6/10 and the T/C % (leukemia L 1210 [2]; 5 mg/kg IP) was over 682%. The “Median day of survival” value (leukemia L 1210 [2]; 10 mg/kg IP) was 15.25 days, the “Variation by weight” value (leukemia L 1210 [2]; 10 mg/kg IP) was -3.1 g and the Number of survivors (leukemia L 1210 [2]; 10 mg/kg IP) was 4/10. The T/C % (leukemia L 1210 [2]; 10 mg/kg IP) was 173%, the “Median day of survival” value (leukemia L 1210 [2]; 20 mg/kg IP) was 8.4 days and the “Variation by weight” value (leukemia L 1210 [2]; 20 mg/kg IP) was -5.6 g. The Number of survivors (leukemia L 1210 [2]; 20 mg/kg IP) was 0/10, the T/C % (leukemia L 1210 [2]; 20 mg/kg IP) was 95% and the “Median day of survival” value (reticulosarcoma M5-M5076; 1.25 mg/kg IP) was 34.0 days. The “Variation by weight (g)” value (reticulosarcoma M5-M5076; 1.25 mg/kg IP) was “+2.7 g”, the Number of survivors (reticulosarcoma M5-M5076; 1.25 mg/kg IP) was 1/10 and the T/C % (reticulosarcoma M5-M5076; 1.25 mg/kg IP) was 133%. For the same compound, the “Median day of survival” value (reticulosarcoma M5-M5076; 2.5 mg/kg IP) was 33.0 days, the “Variation by weight (g)” value (reticulosarcoma M5-M5076; 2.5 mg/kg IP) was “+0.4 g” and the Number of survivors (reticulosarcoma M5-M5076; 2.5 mg/kg IP) was 1/10. The T/C % (reticulosarcoma M5-M5076; 2.5 mg/kg IP) was 129%, the “Median day of survival” value (reticulosarcoma M5-M5076; 5 mg/kg IP) was 40.0 days and the “Variation by weight (g)” value (reticulosarcoma M5-M5076; 5 mg/kg IP) was “+2.1 g”. For the same compound, the Number of survivors (reticulosarcoma M5-M5076; 5 mg/kg IP) was 1/10, the T/C % (reticulosarcoma M5-M5076; 5 mg/kg IP) was 156% and the “Median day of survival” value (reticulosarcoma M5-M5076; 10 mg/kg IP) was 42.0 days. The “Variation by weight (g)” value (reticulosarcoma M5-M5076; 10 mg/kg IP) was “+1.2 g”, the Number of survivors (reticulosarcoma M5-M5076; 10 mg/kg IP) was 1/10 and the T/C % (reticulosarcoma M5-M5076; 10 mg/kg IP) was 164%. For the same compound, the “Median day of survival” value (reticulosarcoma M5-M5076; 20 mg/kg IP) was 44.75 days, the “Variation by weight” value (reticulosarcoma M5-M5076; 20 mg/kg IP) was 0.0 g and the Number of survivors (reticulosarcoma M5-M5076; 20 mg/kg IP) was 1/10. The T/C % (reticulosarcoma M5-M5076; 20 mg/kg IP) was 175%, the “Median day of survival” value (reticulosarcoma M5-M5076; 40 mg/kg IP) was 46.0 days and the “Variation by weight” value (reticulosarcoma M5-M5076; 40 mg/kg IP) was -2.8 g. The Number of survivors (reticulosarcoma M5-M5076; 40 mg/kg IP) was 2/10 and the T/C % (reticulosarcoma M5-M5076; 40 mg/kg IP) was 180%.
In the case of Cc1cnc(NCCCN(C)C)c2c3cc(O)ccc3n(C)c12 [Derivative No. 14, 4,5-dimethyl 1(3-dimethylaminopropylamino)-8-hydroxy-5H-pyrido[4,3-b]indole], the IC50 [1] is reported as 0.014 µM, the “Median day of survival” value (leukemia L 1210 [3]) is reported as 14.0 days and the “Variation by weight” value (leukemia L 1210 [3]) is reported as -1.1 g. The Number of survivors (leukemia L 1210 [3]; day D60) was 0/10 and the T/C % (leukemia L 1210 [3]; survival time) was 157%.
